Measurements taken from the supplement of paper PMC10307832.

Tests used:
Test in all cases: relative viability (nuclei count vs DMSO), 5 days (fraction); higher = more cells survive
TPCA-1 + Lapatinib = compound: C1=CC(=CC=C1C2=CC(=C(S2)NC(=O)N)C(=O)N)F [TPCA-1] + CS(=O)(=O)CCNCc1ccc(-c2ccc3ncnc(Nc4ccc(OCc5cccc(F)c5)c(Cl)c4)c3c2)o1 [Lapatinib] (partner 2 µM)
How it was run: (§1)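 Values are medians from duplicate plates. Each reflects relative viability, defined as the nuclei count of treated wells over that of vehicle wells. Lung cancer cell lines in 1536-well plates were pin-tool dosed one day after seeding with one drug alone or with a fixed anchor-drug dose plus five library-drug doses (not always all listed) in √10 steps, then fixed, stained and imaged at 4× after 5 days.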

[1] = compound: C1/C(=C\C2=CC=CS2)/C(=O)/C(=C/C3=CC=CS3)/C1 + CS(=O)(=O)N1CCN(Cc2cc3nc(-c4cccc5[nH]ncc45)nc(N4CCOCC4)c3s2)CC1 [Pictilisib] (partner 1 µM)
How it was run: as §1

TPCA-1 + Olaparib = compound: C1=CC(=CC=C1C2=CC(=C(S2)NC(=O)N)C(=O)N)F [TPCA-1] + O=C(c1cc(Cc2n[nH]c(=O)c3ccccc23)ccc1F)N1CCN(C(=O)C2CC2)CC1 [Olaparib] (partner 8 µM)
How it was run: as §1

[2] = compound: C1/C(=C\C2=CC=CS2)/C(=O)/C(=C/C3=CC=CS3)/C1 + CC(=O)c1c(C)c2cnc(Nc3ccc(N4CCNCC4)cn3)nc2n(C2CCCC2)c1=O [Palbociclib] (partner 0.5 µM)
How it was run: as §1

Cell Line | relative viability (TPCA-1 + Lapatinib; first compound 0.04 µM) | relative viability (TPCA-1 + Lapatinib; first compound 0.1265 µM) | relative viability (TPCA-1 + Lapatinib; first compound 0.4 µM) | relative viability (TPCA-1 + Lapatinib; first compound 1.265 µM) | relative viability (TPCA-1 + Lapatinib; first compound 4 µM) | relative viability ([1]; first compound 0.2 µM) | relative viability ([1]; first compound 0.6325 µM) | relative viability ([1]; first compound 2 µM) | relative viability ([1]; first compound 6.325 µM) | relative viability ([1]; first compound 20 µM) | relative viability (TPCA-1 + Olaparib; first compound 0.04 µM) | relative viability (TPCA-1 + Olaparib; first compound 0.1265 µM) | relative viability (TPCA-1 + Olaparib; first compound 0.4 µM) | relative viability (TPCA-1 + Olaparib; first compound 1.265 µM) | relative viability (TPCA-1 + Olaparib; first compound 4 µM) | relative viability ([2]; first compound 0.2 µM) | relative viability ([2]; first compound 0.6325 µM) | relative viability ([2]; first compound 2 µM) | relative viability ([2]; first compound 6.325 µM) | relative viability ([2]; first compound 20 µM)
NCI-H838 | 1.14 | 0.864 | 1.12 | 0.598 | 0.565 | 0.456 | 0.511 | 0.416 | 0.413 | 0.436 | 0.867 | 0.718 | 0.826 | 0.557 | 0.406 | 0.225 | 0.212 | 0.211 | 0.203 | 0.194
NCI-H1666 | 0.539 | 0.569 | 0.865 | 0.707 | 0.631 | 0.587 | 0.281 | 0.408 | 0.273 | 0.309 | 0.767 | 0.673 | 0.71 | 0.757 | 0.768 | 0.68 | 0.645 | 0.624 | 0.521 | 0.672
NCI-H1944 | 0.999 | 0.68 | 0.838 | 0.7 | 0.682 | 0.35 | 0.333 | 0.357 | 0.162 | 0.341 | 0.482 | 0.424 | 0.436 | 0.425 | 0.336 | 0.349 | 0.371 | 0.349 |  | 0.317
NCI-H2023 | 1.1 | 0.78 | 1.14 | 0.528 | 0.133 | 0.282 | 0.254 | 0.241 | 0.214 | 0.23 | 0.633 | 0.445 | 0.581 | 0.516 | 0.411 | 0.454 | 0.386 | 0.495 | 0.235 | 0.332
NCI-H1755 | 0.991 | 0.984 | 1.02 | 0.898 | 0.689 | 0.475 | 0.436 | 0.435 | 0.353 | 0.386 | 0.778 | 0.912 | 0.877 | 0.853 | 0.672 | 0.432 | 0.454 | 0.458 | 0.333 | 0.409
NCI-H23 | 1.06 | 0.96 | 1.05 | 1 | 0.349 | 0.557 | 0.495 | 0.535 | 0.551 | 0.542 | 0.317 | 0.234 | 0.285 | 0.353 | 0.192 | 0.553 | 0.557 | 0.551 | 0.478 | 0.462
ABC-1 | 1.19 | 1.06 | 1.22 | 1.21 | 0.854 | 0.896 | 0.64 | 0.882 | 0.631 | 0.658 | 1.43 | 0.676 | 0.97 | 0.789 | 0.788 | 0.707 | 0.614 | 0.886 | 0.64 | 0.513
201T | 1.05 | 1.02 | 1.01 | 1.01 | 1.05 | 0.695 | 0.688 | 0.697 | 0.607 | 0.664 | 0.857 | 0.827 | 0.841 | 0.83 | 0.87 | 0.348 | 0.37 | 0.349 | 0.353 | 0.348
